Test systems include IGROV1 ovarian; MDA-MB-435; M14 melanoma; SNB-75 CNS; HCC-2998 colon; A549 NSCLC; DU-145 prostate; K-562 leukemia; HOP-92 NSCLC; HL-60(TB) leukemia.
Holding throughout (assay): DTP human tumour cell line panel, 48 h

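A five-concentration, 48-hour dose response in 96-well plates underlies each endpoint, interpolated linearly between surrounding concentrations. At the GI50, growth is halved. TGI: concentration producing complete growth inhibition.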 Some results are limits rather than exact numbers.

Usually GI50 stands for the concentration that inhibits growth by half. As a reminder, the TGI is the concentration giving total growth inhibition. A low value points to greater sensitivity of the cells.

`CC[C@@H](c1ccc(O)c(O)c1)[C@@H](CC)c1ccc(O)c(O)c1`: the GI50 is 9.57 µM with IGROV1 ovarian; 3.47 µM in the assay with MDA-MB-435; 3.59 µM with M14 melanoma; 17.7 µM in the assay with SNB-75 CNS; 17.4 µM in the assay with HCC-2998 colon; 31.9 µM in the assay with A549 NSCLC. In addition, the GI50 with DU-145 prostate was 12.9 µM; with K-562 leukemia it was 3.38 µM; with HOP-92 NSCLC, 2.02 µM; with HL-60(TB) leukemia it was 2.66 µM. The TGI with IGROV1 ovarian was 85.5 µM; in the assay with MDA-MB-435, 15.1 µM; in the assay with M14 melanoma, 13.5 µM; in the assay on SNB-75 CNS it was 41.6 µM; in the assay with HCC-2998 colon, 33.1 µM; in the assay on A549 NSCLC, greater than 100 µM. In addition, the TGI was 26.2 µM with DU-145 prostate, 94.5 µM in the assay with K-562 leukemia, 6.09 µM with HOP-92 NSCLC and 6.21 µM with HL-60(TB) leukemia.

Consider `CN1CCN(C(=O)COc2ccc(C34CC5CC(CC(C5)C3)C4)cc2)CC1`, for which the GI50 with IGROV1 ovarian was 15 µM; in the assay on MDA-MB-435, 14.6 µM; in the assay on M14 melanoma it was 15.3 µM; in the assay on SNB-75 CNS it was 14.1 µM; in the assay with HCC-2998 colon, 13.8 µM; with A549 NSCLC it was 13 µM. Moreover, the GI50 is 19 µM in the assay with DU-145 prostate, 4.38 µM with K-562 leukemia, 1.47 µM with HOP-92 NSCLC and 4.7 µM in the assay on HL-60(TB) leukemia. Also, the TGI with IGROV1 ovarian was determined as 39.2 µM; in the assay with MDA-MB-435, 28.8 µM; in the assay with M14 melanoma, 30.7 µM; in the assay on SNB-75 CNS it was 29.3 µM; in the assay with HCC-2998 colon, 27.4 µM; with A549 NSCLC, 37.2 µM. Also, the TGI is 55.7 µM in the assay with DU-145 prostate, 46.5 µM in the assay on K-562 leukemia, 7.23 µM in the assay with HOP-92 NSCLC and 23.2 µM with HL-60(TB) leukemia.

With `CC1(C)[C@@H](NOCCCN)CC[C@]2(C)[C@H]3C(=O)C=C4[C@@H]5C[C@](C)(C(=O)O)CC[C@]5(C)CC[C@@]4(C)[C@]3(C)CC[C@@H]12`, the GI50 with IGROV1 ovarian was 12.2 µM; in the assay with MDA-MB-435, 6.08 µM; in the assay with M14 melanoma, 8.46 µM; with SNB-75 CNS, 12 µM; in the assay on HCC-2998 colon it was 3.59 µM; in the assay with A549 NSCLC it was 6.13 µM. The GI50 with DU-145 prostate was 4.63 µM; in the assay with K-562 leukemia, 2.57 µM; with HOP-92 NSCLC, 2.38 µM; with HL-60(TB) leukemia it was 1.89 µM. The TGI was 24.6 µM in the assay on IGROV1 ovarian; 23.6 µM in the assay with MDA-MB-435; 28.8 µM in the assay with M14 melanoma; 42.4 µM in the assay with SNB-75 CNS; 13.1 µM in the assay with HCC-2998 colon; 33.6 µM in the assay with A549 NSCLC. Further, the TGI in the assay on DU-145 prostate worked out at 15.4 µM; in the assay with K-562 leukemia, 12.1 µM; in the assay with HOP-92 NSCLC, 12.3 µM; in the assay on HL-60(TB) leukemia, 4.16 µM.

With `C=C1C(=O)O[C@H]2[C@H]1CC/C(CNC(=O)c1cc3ccccc3[nH]1)=C\CC[C@@]1(C)O[C@@H]21`, the GI50 with IGROV1 ovarian is 1.32 µM; in the assay on MDA-MB-435, 1.58 µM; in the assay on M14 melanoma it was 1.12 µM; in the assay on SNB-75 CNS, 6.98 µM; in the assay with HCC-2998 colon it was 1.85 µM; in the assay with A549 NSCLC it was 4.39 µM. Further, the GI50 in the assay on DU-145 prostate was 0.575 µM; with K-562 leukemia it was 0.642 µM; in the assay on HOP-92 NSCLC it was 1.57 µM; in the assay with HL-60(TB) leukemia it was 2.01 µM. Also, the TGI in the assay on IGROV1 ovarian turned out to be 5.4 µM; in the assay on MDA-MB-435, 4.63 µM; with M14 melanoma, 2.81 µM; in the assay with SNB-75 CNS, 21 µM; with HCC-2998 colon, 3.38 µM; in the assay on A549 NSCLC it was 15.7 µM. Also, the TGI in the assay on DU-145 prostate came to 1.87 µM; with K-562 leukemia, 4.92 µM; in the assay with HOP-92 NSCLC it was 3.46 µM; with HL-60(TB) leukemia it was 5.8 µM.

Take `COc1cc(-c2nc3sccn3c2-c2ccnc(NCCNS(=O)(=O)c3ccc(F)cc3)n2)ccc1F`: the GI50 was 1.69 µM with IGROV1 ovarian; 1.11 µM in the assay on MDA-MB-435; 0.499 µM in the assay with M14 melanoma; 1.54 µM in the assay on SNB-75 CNS; 3.21 µM with HCC-2998 colon; 2.44 µM in the assay with A549 NSCLC. Also, the GI50 in the assay with DU-145 prostate was 2.42 µM; in the assay with K-562 leukemia, 1.53 µM; in the assay with HOP-92 NSCLC it was 2.49 µM; in the assay on HL-60(TB) leukemia it was 3.4 µM. The TGI in the assay on IGROV1 ovarian is greater than 100 µM; with MDA-MB-435 it was 5.5 µM; with M14 melanoma, greater than 100 µM; with SNB-75 CNS, greater than 100 µM; in the assay on HCC-2998 colon it was greater than 100 µM; in the assay with A549 NSCLC, greater than 100 µM. Moreover, the TGI with DU-145 prostate, in the assay on K-562 leukemia, in the assay on HOP-92 NSCLC and in the assay on HL-60(TB) leukemia was greater than 100 µM in each case.

`COc1ccccc1NC(=O)c1cc2cc(Br)ccc2cc1O`: the GI50 was 1.6 µM in the assay on IGROV1 ovarian; 2.35 µM in the assay with MDA-MB-435; 3.01 µM in the assay with M14 melanoma; 2.12 µM in the assay on SNB-75 CNS; 3.21 µM in the assay with HCC-2998 colon; 2.65 µM with A549 NSCLC. For the same molecule, the GI50 in the assay with DU-145 prostate is 3.28 µM; in the assay on K-562 leukemia, 2.37 µM; with HOP-92 NSCLC, 1.34 µM; with HL-60(TB) leukemia, 2.14 µM. The TGI in the assay with IGROV1 ovarian came out at 6.56 µM; with MDA-MB-435, 8.58 µM; with M14 melanoma it was 11.9 µM; with SNB-75 CNS, 8.89 µM; in the assay with HCC-2998 colon it was 11.8 µM; in the assay with A549 NSCLC it was 7.71 µM. The TGI in the assay on DU-145 prostate is 14 µM; with K-562 leukemia, greater than 100 µM; with HOP-92 NSCLC, 4.78 µM; in the assay on HL-60(TB) leukemia it was greater than 22.1 µM.

As to `COC(=O)[C@]12CC[C@@H](C)[C@H](C)[C@@H]1C1=CC[C@@H]3[C@@]4(C)C[C@@H](O)[C@H](O)[C@@](C)(CO)[C@@H]4[C@H](O)C[C@@]3(C)[C@]1(C)CC2`, the GI50 is 12.4 µM in the assay on IGROV1 ovarian; 13 µM in the assay with MDA-MB-435; 12.8 µM in the assay with M14 melanoma; 12.3 µM in the assay with SNB-75 CNS; 14.6 µM in the assay with HCC-2998 colon; 15.8 µM with A549 NSCLC. The GI50 in the assay with DU-145 prostate was 16.4 µM; in the assay on K-562 leukemia it was 12.7 µM; with HOP-92 NSCLC it was 12.9 µM; with HL-60(TB) leukemia it was 9.1 µM. Moreover, the TGI was 29.4 µM in the assay with IGROV1 ovarian; 27.3 µM in the assay on MDA-MB-435; 29.4 µM with M14 melanoma; 28.1 µM with SNB-75 CNS; 31.2 µM in the assay with HCC-2998 colon; 45.2 µM in the assay with A549 NSCLC. Further, the TGI in the assay with DU-145 prostate was 31.8 µM; in the assay with K-562 leukemia, 45.7 µM; in the assay on HOP-92 NSCLC, 27.9 µM; with HL-60(TB) leukemia, 30.3 µM.

The record behind these values is PubChem BioAssay (NCI).
